Laboratory results published in US20020165188A1, “Methods for inhibition of tumorigenic properties of melanoma cells” (priority 1999, published 2002).
“Also recorded” adds a separate entry of the source. Blank lines part the entries; values can stand above or below the molecule they belong to.

Tests used:
[1] = system: E-cadherin; assay: E-cadherin expression in melanocytic cells under HGF stimulation (immunoblot); assay type: cell-based, human
Description: (§1) Optimal viral concentrations for infection were determined as the amounts of virus required to yield the desired levels of gene expression without apparent alteration in cellular phenotype or toxicity. Subconfluent melanocytes and melanoma cells were infected with adenoviruses for 2-4 hours at 37° C. in protein-free W489 medium. Viral suspension was then replaced with culture medium. Because dominant negative Desmoglein-3 vector AxCALNLDsg3ΔEC and E-cadherin vector AxCALNLEcadΔEC were made using the Cre-loxP system (Hanakawa et al., 2000), AxCANCre was co-infected with AxCALNLDsg3ΔEC or AxCALNLEcacLΔEC at a ratio of 1:1, respectively. Cells were allowed to recover for at least 24 hours before assay.
(§2) For immunoblotting, cells were washed with PBS and harvested in RIPA buffer. Total protein concentrations were measured using the bicinchoninic acid (BCA) assay (Pierce Chemical Co. Rockford, Ill.). Samples were loaded at 15 μg/lane and separated on 8% SDS polyacrylamide gels and transferred to polyvinylidene difluoride (PVDF) membranes and probed with specific primary antibodies. To detect the signal, peroxidase-conjugated secondary antibody was added, followed by exposure using enhanced chemiluminescence (ECL) (Amersham, Arlington Heights, Ill.). Some of the immunoblots were quantified using NIH Image (version 1.61).

[2] = system: Desmoglein 1; assay: Desmoglein 1 expression in melanocytic cells under HGF stimulation (immunoblot); assay type: cell-based, human
Description: as §1, §2

[3] = system: c-Met; assay: c-Met phosphorylation by immunoprecipitation and anti-phosphotyrosine blot; assay type: cell-based, human
Description: To investigate the status of c-Met phosphorylation, subconfluent melanoma cells were infected with LacZ or Ad.CMV.rhHGF (20 pfu/cell) and cultured for 48 hours. In neutralizing antibody-treated group, HGF neutralizing antibody (final concentration 10 ug/ml) was added to serum-free medium 24 hours before lysis. Cells were washed with cold PBS containing 1 mM Na3VO4, and rapidly scraped into 200 μl PBS containing 1% Triton X-100, 1% NP4O, 1 mM Na3VO4, 1 mM phenylmethyl sulfonyl fluoride (PMSF), and protease inhibitors (1 μg/ml leupeptin, aprotinin and pepstatin). After incubation on ice for 15 minutes, the extracts were separated by centrifugation at 13,000× g for 10 minutes. The supernatants were used for immunoprecipitation using an anti-c-Met antibody (5 μg) for 1 hour at 4° C. with shaking. Protein A-G sepharose CL-4B beads (Pharmacia Biotech, Uppsala, Sweden) were then added and incubated for 12 hours. Samples were washed four times with lysis buffer, boiled in Laemmli buffer containing (3-mercaptoethanol, and subjected to electrophoresis on an 8% SDS-polyacrylamide gel. Separated proteins were transferred onto PVDF membrane and detected by anti-phosphotyrosine primary antibody (PY2O) and peroxidase-conjugated secondary antibody. Signals were detected using ECL.

[4] = system: melanocytes or melanoma cells; assay: Growth of melanocytes and melanoma cells after HGF treatment; assay type: cell-based, human; details: HGF treatment alone
[5] = target: T1, IGF-R1 (human, UniProt P08069 31-1367, limits assumed); assay: co-immunoprecipitation with anti-Desmoglein 1 antibody, blot probed with anti-IGF-R1 antibody
T1 construct: Specificity control of the co-immunoprecipitation; also called IF-R1
T1 sequence (P08069 31-1367 limits assumed): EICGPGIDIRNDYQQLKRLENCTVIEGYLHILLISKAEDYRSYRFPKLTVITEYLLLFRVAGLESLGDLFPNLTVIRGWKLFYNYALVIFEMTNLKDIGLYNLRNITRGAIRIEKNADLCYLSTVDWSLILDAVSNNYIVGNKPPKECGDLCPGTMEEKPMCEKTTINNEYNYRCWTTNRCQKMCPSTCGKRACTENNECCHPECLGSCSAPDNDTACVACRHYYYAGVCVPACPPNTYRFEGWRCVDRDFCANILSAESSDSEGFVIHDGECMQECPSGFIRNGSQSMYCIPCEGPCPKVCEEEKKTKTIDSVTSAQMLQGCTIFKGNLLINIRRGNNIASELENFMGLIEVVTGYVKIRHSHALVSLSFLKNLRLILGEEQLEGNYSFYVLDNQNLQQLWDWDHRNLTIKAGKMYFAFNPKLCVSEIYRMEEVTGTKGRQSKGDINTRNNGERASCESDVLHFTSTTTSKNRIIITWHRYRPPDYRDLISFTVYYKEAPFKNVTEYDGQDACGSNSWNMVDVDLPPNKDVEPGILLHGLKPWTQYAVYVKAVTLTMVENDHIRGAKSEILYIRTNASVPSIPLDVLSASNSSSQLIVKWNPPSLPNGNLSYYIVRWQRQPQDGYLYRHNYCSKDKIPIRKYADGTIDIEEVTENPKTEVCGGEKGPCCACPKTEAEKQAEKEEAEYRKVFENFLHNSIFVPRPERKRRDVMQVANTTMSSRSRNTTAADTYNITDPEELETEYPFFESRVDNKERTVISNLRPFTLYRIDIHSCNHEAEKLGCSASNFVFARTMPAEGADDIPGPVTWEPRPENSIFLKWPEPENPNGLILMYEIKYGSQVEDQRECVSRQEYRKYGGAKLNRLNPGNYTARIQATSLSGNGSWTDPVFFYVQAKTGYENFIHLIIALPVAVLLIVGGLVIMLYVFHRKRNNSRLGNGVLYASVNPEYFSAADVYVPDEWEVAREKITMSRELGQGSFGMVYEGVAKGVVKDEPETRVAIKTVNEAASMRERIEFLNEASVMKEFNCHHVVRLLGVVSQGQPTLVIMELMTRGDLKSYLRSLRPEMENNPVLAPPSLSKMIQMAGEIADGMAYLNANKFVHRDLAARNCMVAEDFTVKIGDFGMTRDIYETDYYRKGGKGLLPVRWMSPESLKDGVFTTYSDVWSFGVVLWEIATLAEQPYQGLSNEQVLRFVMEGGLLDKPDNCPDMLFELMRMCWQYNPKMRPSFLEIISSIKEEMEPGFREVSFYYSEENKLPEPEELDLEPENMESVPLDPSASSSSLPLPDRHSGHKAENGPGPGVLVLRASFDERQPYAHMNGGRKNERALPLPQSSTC
Description: (§3) Desmoglein 1, E-cadherin, c-Met and Plakoglobin can be co-immunoprecipitated from melanocytic cells. […] To test the possibility that physical interactions underlie the crosstalk between HGF/c-Met signaling and adhesion receptor regulation, the complex formation was investigated by immunoprecipitation analyses. Desmoglein 1, Plakoglobin, c-Met and E-cadherin were detected in the complexes pulled down by either anti-Desmoglein 1 antibody or anti-Plakoglobin antibody in keratinocytes and melanocytes. WM278 expresses no E-cadherin, but the other components were also found to form complexes. The specificity of the interaction was confirmed by probing the same blots with anti-IF-R1 antibody. IF-R1 was not detected in the immunoprecipitants but IF-R1 was detectable in whole cell extract.
(§4) To investigate c-Met Desmoglein lE-cadherin complexes, cells cultured in their optimal media were lysed in 10 mM Tris-HCl (pH7.4), 1% NP-40, 1% Triton X-100, 2mM CaCl₂, 150 mM NaCl, 1 mM PMSF and protease inhibitors (1 μg/ml leupeptin, aprotinin and pepstatin). The extracts were immunoprecipitated using either anti-Desmoglein 1 or anti-Plakoglobin antibody in the same condition described above. Immunoprecipitants were separated on gels, transferred onto PVDF membrane and probed with anti-Desmoglein 1, -Plakoglobin, -c-Met and -E-cadherin antibodies.

[6] = target: T1, IGF-R1; assay: co-immunoprecipitation with anti-Plakoglobin antibody, blot probed with anti-IGF-R1 antibody
Description: as §3, §4

[7] = Ad.CMV.rhHGF transduced melanocytes, antibody 10 μg/ml, wortmannin 30 μM, PD98059 10 μM and 50 μM
[8] = autocrine activation by HGF-expressing adenovirus, melanocytes, WM164, WM35
[9] = continuous/prolonged HGF stimulation (three days; Ad.CMV.rhHGF 20 pfu/cell), melanocytes, WM164 and WM35
[10] = melanocytes, one pulse of recombinant protein 50 ng/ml, five and twelve hour intervals

Molecule: COc1cccc(-c2cc(=O)c3ccccc3o2)c1N [PD98059, reference compound]
- blocking of HGF-induced downregulation of E-cadherin [1, 7]: less effective
- blocking of downregulation of E-cadherin (summary statement) [1, 8]: partially blocked
- blocking of HGF-induced downregulation of Desmoglein 1 [2, 7]: less effective
- blocking of downregulation of Desmoglein 1 (summary statement) [2, 8]: partially blocked

Molecule: HGF: multi-functional cytokine acting through tyrosine kinase receptor c-met; recombinant human HGF from R&D Systems
- levels of c-Met ([3]; after HGF treatment): did not change
- tyrosine-phosphorylated c-Met ([3]; melanocytes and melanoma cells treated with additional HGF): dramatic increase
- expression levels of E-cadherin [1, 9]: greatly reduced
- E-cadherin expression after pulse HGF [1, 10]: did not alter; also recorded: did not cause downregulation
- expression levels of Desmoglein 1 [2, 9]: greatly reduced
- Desmoglein expression after pulse HGF [2, 10]: did not alter; also recorded: did not cause downregulation
- growth stimulation [4]: No significant growth stimulation

- binding result [5]: no binding
B1: Desmoglein 1 (other, human, UniProt Q02413 50-1049, looked up)
chain: EWIKFAAACREGEDNSKRNPIAKIHSDCAANQQVTYRISGVGIDQPPYGIFVINQKTGEINITSIVDREVTPFFIIYCRALNSMGQDLERPLELRVRVLDINDNPPVFSMATFAGQIEENSNANTLVMILNATDADEPNNLNSKIAFKIIRQEPSDSPMFIINRNTGEIRTMNNFLDREQYGQYALAVRGSDRDGGADGMSAECECNIKILDVNDNIPYMEQSSYTIEIQENTLNSNLLEIRVIDLDEEFSANWMAVIFFISGNEGNWFEIEMNERTNVGILKVVKPLDYEAMQSLQLSIGVRNKAEFHHSIMSQYKLKASAISVTVLNVIEGPVFRPGSKTYVVTGNMGSNDKVGDFVATDLDTGRPSTTVRYVMGNNPADLLAVDSRTGKLTLKNKVTKEQYNMLGGKYQGTILSIDDNLQRTCTGTININIQSFGNDDRTNTEPNTKITTNTGRQESTSSTNYDTSTTSTDSSQVYSSEPGNGAKDLLSDNVHFGPAGIGLLIMGFLVLGLVPFLMICCDCGGAPRSAAGFEPVPECSDGAIHSWAVEGPQPEPRDITTVIPQIPPDNANIIECIDNSGVYTNEYGGREMQDLGGGERMTGFELTEGVKTSGMPEICQEYSGTLRRNSMRECREGGLNMNFMESYFCQKAYAYADEDEGRPSNDCLLIYDIEGVGSPAGSVGCCSFIGEDLDDSFLDTLGPKFKKLADISLGKESYPDLDPSWPPQSTEPVCLPQETEPVVSGHPPISPHFGTTTVISESTYPSGPGVLHPKPILDPLGYGNVTVTESYTTSDTLKPSVHVHDNRPASNVVVTERVVGPISGADLHGMLEMPDLRDGSNVIVTERVIAPSSSLPTSLTIHHPRESSNVVVTERVIQPTSGMIGSLSMHPELANAHNVIVTERVVSGAGVTGISGTTGISGGIGSSGLVGTSMGAGSGALSGAGISGGGIGLSSLGGTASIGHMRSSSDHHFNQTIGSASPSTARSRITKYSTVQYSK
notes: Endogenous protein immunoprecipitated from detergent lysates of cultured human cells; also called Dsg1

- binding result [6]: no binding
B2: Plakoglobin (other, human, UniProt P14923 1-745, looked up)
chain: MEVMNLMEQPIKVTEWQQTYTYDSGIHSGANTCVPSVSSKGIMEEDEACGRQYTLKKTTTYTQGVPPSQGDLEYQMSTTARAKRVREAMCPGVSGEDSSLLLATQVEGQATNLQRLAEPSQLLKSAIVHLINYQDDAELATRALPELTKLLNDEDPVVVTKAAMIVNQLSKKEASRRALMGSPQLVAAVVRTMQNTSDLDTARCTTSILHNLSHHREGLLAIFKSGGIPALVRMLSSPVESVLFYAITTLHNLLLYQEGAKMAVRLADGLQKMVPLLNKNNPKFLAITTDCLQLLAYGNQESKLIILANGGPQALVQIMRNYSYEKLLWTTSRVLKVLSVCPSNKPAIVEAGGMQALGKHLTSNSPRLVQNCLWTLRNLSDVATKQEGLESVLKILVNQLSVDDVNVLTCATGTLSNLTCNNSKNKTLVTQNSGVEALIHAILRAGDKDDITEPAVCALRHLTSRHPEAEMAQNSVRLNYGIPAIVKLLNQPNQWPLVKATIGLIRNLALCPANHAPLQEAAVIPRLVQLLVKAHQDAQRHVAAGTQQPYTDGVRMEEIVEGCTGALHILARDPMNRMEIFRLNTIPLFVQLLYSSVENIQRVAAGVLCELAQDKEAADAIDAEGASAPLMELLHSRNEGTATYAAAVLFRISEDKNPDYRKRVSVELTNSLFKHDPAAWEAAQSMIPINEPYGDDMDATYRPMYSSDVPLDPLEMHMDMDGDYPIDTYSDGLRPPYPTADHMLA
notes: Endogenous protein immunoprecipitated from detergent lysates of cultured human cells; also called gamma-catenin; y-catenin
